The source of these data is ChEMBL document CHEMBL1135206, “Albumin affinity tags increase peptide half-life in vivo” (Bioorg Med Chem Lett, 2002).

Molecules are shown by their SMILES. *1 amine or outer side, *2 acyl side, *3 side chain or, on linkers, in order; H or OH if unused. Where a SMILES comes first, the peptide text is derived from it. Bridges are numbered along the chain shown (N, C = ends). [ ]: non-standard residue; d: D form. The star is where a group is joined. X3 = C[C@@H](C(=O)[*:2])N(Cc1ccccc1OC(F)(F)F)[*:1]; X5 = C[C@@H](C(=O)[*:2])N(Cc1cccc2ccccc12)[*:1]; 2Naphthylsulfonyl = O=S(=O)(c1ccc2ccccc2c1)*; Quinoline3carbonyl = O=C(c1cnc2ccccc2c1)*; X6 = O=C(c1ccc(-c2ccccc2[N+](=O)[O-])o1)*; Mts = Cc1cc(C)c(S(=O)(=O)*)c(C)c1; Quinaldoyl = O=C(c1ccc2ccccc2n1)*; NH(4-Cl-phenyl) = Clc1ccc(N*)cc1; CO = O=C([*:1])[*:2]; X4 = Cc1cccc(N*)c1

Data set [1] addresses T1, Coagulation factor VII (Homo sapiens, UniProt P08709).
T1 sequence (P08709 whole entry): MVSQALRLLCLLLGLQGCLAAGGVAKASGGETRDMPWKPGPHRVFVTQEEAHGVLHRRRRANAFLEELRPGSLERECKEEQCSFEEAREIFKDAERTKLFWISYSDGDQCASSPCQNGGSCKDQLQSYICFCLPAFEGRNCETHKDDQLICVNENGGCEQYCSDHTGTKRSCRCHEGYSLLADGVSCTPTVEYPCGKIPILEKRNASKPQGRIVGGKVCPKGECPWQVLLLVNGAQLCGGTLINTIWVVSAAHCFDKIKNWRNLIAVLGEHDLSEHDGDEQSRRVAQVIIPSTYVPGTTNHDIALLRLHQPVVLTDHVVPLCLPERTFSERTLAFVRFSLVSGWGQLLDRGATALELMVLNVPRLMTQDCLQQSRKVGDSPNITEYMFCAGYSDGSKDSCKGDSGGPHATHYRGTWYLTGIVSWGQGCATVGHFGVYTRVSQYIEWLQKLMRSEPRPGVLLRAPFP
The experiment in a line: Inhibition of amino terminally biotinylated E-76 peptide binding to immobilized fVIIa.

Data set [2] concerns the target Albumin (Homo sapiens, UniProt P02768). Briefly: In vitro binding affinity for human serum albumin. More on the design: unit not given here.

Sequence of Albumin (P02768 whole entry): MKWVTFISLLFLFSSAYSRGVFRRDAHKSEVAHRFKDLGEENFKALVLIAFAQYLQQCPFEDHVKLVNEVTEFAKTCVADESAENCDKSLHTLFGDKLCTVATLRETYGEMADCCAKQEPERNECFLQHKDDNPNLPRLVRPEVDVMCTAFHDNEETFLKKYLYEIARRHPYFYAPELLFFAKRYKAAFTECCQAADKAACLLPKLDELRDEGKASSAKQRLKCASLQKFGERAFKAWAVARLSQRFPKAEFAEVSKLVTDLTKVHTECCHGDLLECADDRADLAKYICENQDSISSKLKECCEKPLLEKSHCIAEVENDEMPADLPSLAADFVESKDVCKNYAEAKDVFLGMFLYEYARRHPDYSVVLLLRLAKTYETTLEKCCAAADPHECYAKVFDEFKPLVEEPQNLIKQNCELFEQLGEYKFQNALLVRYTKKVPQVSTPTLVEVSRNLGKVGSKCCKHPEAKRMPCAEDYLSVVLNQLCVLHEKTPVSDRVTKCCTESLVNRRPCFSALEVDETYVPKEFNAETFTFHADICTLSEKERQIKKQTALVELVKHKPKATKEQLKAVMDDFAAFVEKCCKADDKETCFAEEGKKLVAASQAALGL

One may read the IC50 as the concentration that gives 50% inhibition. With `CC[C@H](C)[C@@H]1NC(=O)[C@H](CCCNC(=N)N)NC(=O)[C@@H]2CCCN2C(=O)[C@H](CC(N)=O)NC(=O)[C@H](CC(=O)O)NC(=O)[C@@H](NC(=O)[C@H](CC(C)C)NC(=O)[C@H](C)NC(=O)Nc2cccc(C)c2)CSSC[C@@H](C(=O)N[C@@H](CCC(N)=O)C(=O)N[C@@H](Cc2ccccc2)C(=O)N[C@H](C(=O)N[C@@H](CCC(=O)O)C(=O)NCC(N)=O)C(C)C)NC(=O)[C@H](Cc2ccc(O)cc2)NC(=O)[C@H](Cc2c[nH]c3ccccc23)NC(=O)[C@H](CCCNC(=N)N)NC(=O)[C@H](CC(=O)O)NC1=O` ({X4-CO}-ALCDNPRIDRWYCQFVEG-NH2; disulfide 3-13), the IC50 in data set [1] came out at 1.8 nM. The Binding affinity in data set [2] turned out to be 0.59.

In the case of `CC[C@H](C)[C@@H]1NC(=O)[C@H](CCCN=C(N)N)NC(=O)[C@@H]2CCCN2C(=O)[C@H](CC(N)=O)NC(=O)[C@H](CC(=O)O)NC(=O)[C@@H](NC(=O)[C@H](CC(C)C)NC(=O)[C@H](C)NC(=O)c2cnc3ccccc3c2)CSSC[C@@H](C(=O)N[C@@H](CCC(N)=O)C(=O)N[C@@H](Cc2ccccc2)C(=O)N[C@H](C(=O)N[C@@H](CCC(=O)O)C(=O)NCC(N)=O)C(C)C)NC(=O)[C@H](Cc2ccc(O)cc2)NC(=O)[C@H](Cc2c[nH]c3ccccc23)NC(=O)[C@H](CCCN=C(N)N)NC(=O)[C@H](CC(=O)O)NC1=O` (Quinoline3carbonyl-ALCDNPRIDRWYCQFVEG-NH2; disulfide 3-13), the IC50 in data set [1] was determined as 11.8 nM. Also, the Binding affinity in data set [2] was found to be 0.64.

The molecule `CC[C@H](C)[C@@H]1NC(=O)[C@H](CCCN=C(N)N)NC(=O)[C@@H]2CCCN2C(=O)[C@H](CC(N)=O)NC(=O)[C@H](CC(=O)O)NC(=O)[C@@H](NC(=O)[C@H](CC(C)C)NC(=O)[C@H](C)NC(=O)c2ccc3ccccc3n2)CSSC[C@@H](C(=O)N[C@@H](CCC(N)=O)C(=O)N[C@@H](Cc2ccccc2)C(=O)N[C@H](C(=O)N[C@@H](CCC(=O)O)C(=O)NCC(N)=O)C(C)C)NC(=O)[C@H](Cc2ccc(O)cc2)NC(=O)[C@H](Cc2c[nH]c3ccccc23)NC(=O)[C@H](CCCN=C(N)N)NC(=O)[C@H](CC(=O)O)NC1=O` (Quinaldoyl-ALCDNPRIDRWYCQFVEG-NH2; disulfide 3-13) gave a concentration for half-maximal inhibition (IC50) in data set [1] of 2.9 nM. In data set [2], this molecule registered a Binding affinity of 0.64.

For `CC[C@H](C)[C@@H]1NC(=O)[C@H](CCCNC(=N)N)NC(=O)[C@@H]2CCCN2C(=O)[C@H](CC(N)=O)NC(=O)[C@H](CC(=O)O)NC(=O)[C@@H](NC(=O)[C@H](CC(C)C)NC(=O)[C@H](C)NC(=O)c2ccc(-c3ccccc3[N+](=O)[O-])o2)CSSC[C@@H](C(=O)N[C@@H](CCC(N)=O)C(=O)N[C@@H](Cc2ccccc2)C(=O)N[C@H](C(=O)N[C@@H](CCC(=O)O)C(=O)NCC(N)=O)C(C)C)NC(=O)[C@H](Cc2ccc(O)cc2)NC(=O)[C@H](Cc2c[nH]c3ccccc23)NC(=O)[C@H](CCCNC(=N)N)NC(=O)[C@H](CC(=O)O)NC1=O` (X6-ALCDNPRIDRWYCQFVEG-NH2; disulfide 3-13), the IC50 in data set [1] was found to be 1 nM. For the same molecule, the Binding affinity in data set [2] amounted to 0.79.

`CC[C@H](C)[C@@H]1NC(=O)[C@H](CCCNC(=N)N)NC(=O)[C@@H]2CCCN2C(=O)[C@H](CC(N)=O)NC(=O)[C@H](CC(=O)O)NC(=O)[C@@H](NC(=O)[C@H](CC(C)C)NC(=O)[C@H](C)NCc2cccc3ccccc23)CSSC[C@@H](C(=O)N[C@@H](CCC(N)=O)C(=O)N[C@@H](Cc2ccccc2)C(=O)N[C@H](C(=O)N[C@@H](CCC(=O)O)C(=O)NCC(N)=O)C(C)C)NC(=O)[C@H](Cc2ccc(O)cc2)NC(=O)[C@H](Cc2c[nH]c3ccccc23)NC(=O)[C@H](CCCNC(=N)N)NC(=O)[C@H](CC(=O)O)NC1=O` (H-[X5]LCDNPRIDRWYCQFVEG-NH2; disulfide 3-13) returned an IC50 in data set [1] of 1.6 nM. In data set [2], the Binding affinity worked out at 0.69.

In data set [1], `CC[C@H](C)[C@@H]1NC(=O)[C@H](CCCN=C(N)N)NC(=O)[C@@H]2CCCN2C(=O)[C@H](CC(N)=O)NC(=O)[C@H](CC(=O)O)NC(=O)[C@@H](NC(=O)[C@H](CC(C)C)NC(=O)[C@H](C)NCc2ccccc2OC(F)(F)F)CSSC[C@@H](C(=O)N[C@@H](CCC(N)=O)C(=O)N[C@@H](Cc2ccccc2)C(=O)N[C@H](C(=O)N[C@@H](CCC(=O)O)C(=O)NCC(N)=O)C(C)C)NC(=O)[C@H](Cc2ccc(O)cc2)NC(=O)[C@H](Cc2c[nH]c3ccccc23)NC(=O)[C@H](CCCN=C(N)N)NC(=O)[C@H](CC(=O)O)NC1=O` (H-[X3]LCDNPRIDRWYCQFVEG-NH2; disulfide 3-13) displayed an IC50 of 13.4 nM. In data set [2], the Binding affinity came to 0.93.

Consider `CC[C@H](C)[C@@H]1NC(=O)[C@H](CCCNC(=N)N)NC(=O)[C@@H]2CCCN2C(=O)[C@H](CC(N)=O)NC(=O)[C@H](CC(=O)O)NC(=O)[C@@H](NC(=O)[C@H](CC(C)C)NC(=O)[C@H](C)NS(=O)(=O)c2ccc3ccccc3c2)CSSC[C@@H](C(=O)N[C@@H](CCC(N)=O)C(=O)N[C@@H](Cc2ccccc2)C(=O)N[C@H](C(=O)N[C@@H](CCC(=O)O)C(=O)NCC(N)=O)C(C)C)NC(=O)[C@H](Cc2ccc(O)cc2)NC(=O)[C@H](Cc2c[nH]c3ccccc23)NC(=O)[C@H](CCCNC(=N)N)NC(=O)[C@H](CC(=O)O)NC1=O` (2Naphthylsulfonyl-ALCDNPRIDRWYCQFVEG-NH2; disulfide 3-13), for which the IC50 in data set [1] is 20.4 nM. The molecule also registered a Binding affinity in data set [2] of 0.92.

The molecule `CC[C@H](C)[C@@H]1NC(=O)[C@H](CCCN=C(N)N)NC(=O)[C@@H]2CCCN2C(=O)[C@H](CC(N)=O)NC(=O)[C@H](CC(=O)O)NC(=O)[C@@H](NC(=O)[C@H](CC(C)C)NC(=O)[C@H](C)NC(=O)Nc2ccc(Cl)cc2)CSSC[C@@H](C(=O)N[C@@H](CCC(N)=O)C(=O)N[C@@H](Cc2ccccc2)C(=O)N[C@H](C(=O)N[C@@H](CCC(=O)O)C(=O)NCC(N)=O)C(C)C)NC(=O)[C@H](Cc2ccc(O)cc2)NC(=O)[C@H](Cc2c[nH]c3ccccc23)NC(=O)[C@H](CCCN=C(N)N)NC(=O)[C@H](CC(=O)O)NC1=O` ({NH(4-Cl-phenyl)-CO}-ALCDNPRIDRWYCQFVEG-NH2; disulfide 3-13) gave an IC50 in data set [1] of 13.4 nM. In data set [2], this molecule came in with a Binding affinity of 0.65.

On to `CC[C@H](C)[C@@H]1NC(=O)[C@H](CCCNC(=N)N)NC(=O)[C@@H]2CCCN2C(=O)[C@H](CC(N)=O)NC(=O)[C@H](CC(=O)O)NC(=O)[C@@H](NC(=O)[C@H](CC(C)C)NC(=O)[C@H](C)NS(=O)(=O)c2c(C)cc(C)cc2C)CSSC[C@@H](C(=O)N[C@@H](CCC(N)=O)C(=O)N[C@@H](Cc2ccccc2)C(=O)N[C@H](C(=O)N[C@@H](CCC(=O)O)C(=O)NCC(N)=O)C(C)C)NC(=O)[C@H](Cc2ccc(O)cc2)NC(=O)[C@H](Cc2c[nH]c3ccccc23)NC(=O)[C@H](CCCNC(=N)N)NC(=O)[C@H](CC(=O)O)NC1=O` (Mts-ALCDNPRIDRWYCQFVEG-NH2; disulfide 3-13), for which, in data set [1], the IC50 is 10 nM. In addition, the Binding affinity in data set [2] is listed as 0.82.
